Experimental data published in ChEMBL document CHEMBL4431301, “The Medicinal Chemistry of Dengue Virus” (J Med Chem, 2016).
Where a SMILES comes first, the peptide text is derived from it.

Experiments:
dengue virus type 2 [1] = assay: Antiviral activity against Dengue virus 2 NGC infected in human HuH7 cells assessed as reduction in virus replication after 48 hrs by renilla luciferase reporter gene assay; type: functional, organism-based; conditions: Huh-7, 48 h
[2] = Cytotoxicity against human HuH7 cells assessed as cell viability after 48 hrs by CellTiter Glo assay; type: cell-based, Huh-7
Genome polyprotein [3] = biological target: T1, Genome polyprotein (dengue virus type 2, UniProt P29990); assay: Inhibition of Dengue virus 2 NS2B-NS3 protease using Abz-Nle-Lys-Arg-Arg-Ser-3-(NO2)Tyr as substrate preincubated for 15 mins followed by addition of substrate measured after 15 mins by fluorescence assay
Target sequence in this assay (P29990 1346-1475 limits assumed): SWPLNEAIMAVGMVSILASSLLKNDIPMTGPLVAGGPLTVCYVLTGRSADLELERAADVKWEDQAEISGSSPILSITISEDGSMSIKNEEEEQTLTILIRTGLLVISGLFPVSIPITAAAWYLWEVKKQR
Target sequence in this assay (P29990 1476-2093 limits assumed): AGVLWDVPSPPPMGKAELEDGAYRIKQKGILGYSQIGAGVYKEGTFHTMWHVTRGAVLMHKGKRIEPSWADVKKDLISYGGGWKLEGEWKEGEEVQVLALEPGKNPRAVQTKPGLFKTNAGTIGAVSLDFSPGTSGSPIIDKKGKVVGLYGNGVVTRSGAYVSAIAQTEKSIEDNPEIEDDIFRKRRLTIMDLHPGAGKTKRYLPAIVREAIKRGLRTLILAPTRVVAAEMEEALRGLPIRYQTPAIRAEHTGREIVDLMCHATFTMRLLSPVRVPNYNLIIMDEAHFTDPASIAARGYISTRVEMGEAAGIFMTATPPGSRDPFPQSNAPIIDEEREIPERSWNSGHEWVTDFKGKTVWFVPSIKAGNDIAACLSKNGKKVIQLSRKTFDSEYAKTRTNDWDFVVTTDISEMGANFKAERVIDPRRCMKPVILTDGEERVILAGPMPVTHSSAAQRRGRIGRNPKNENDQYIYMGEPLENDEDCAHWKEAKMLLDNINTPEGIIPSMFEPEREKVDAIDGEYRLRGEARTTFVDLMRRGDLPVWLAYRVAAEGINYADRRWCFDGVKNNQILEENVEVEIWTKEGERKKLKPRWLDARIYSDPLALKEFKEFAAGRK

[4] = Inhibition of Dengue virus guanine N-7 methyltransferase using RNA substrate after 20 mins in presence of [methyl-3H]-AdoMet by microbeta counting analysis
Nonstructural protein 5 = Nonstructural protein 5 (Dengue virus, UniProt V5TFZ2); assay: Inhibition of Dengue virus ribose 2'-O methyltransferase using RNA substrate after 20 mins in presence of [methyl-3H]-AdoMet by microbeta counting analysis
dengue virus type 2 [5] = assay: Antiviral activity against Dengue virus 2 NGC infected in human A549 cells assessed as reduction in virus replication after 48 hrs by renilla luciferase reporter gene assay; type: functional, organism-based; conditions: A549, 48 h
dengue virus type 2 [6] = assay: Antiviral activity against Dengue virus 2 NGC infected in human K562 cells assessed as inhibition in live viral replication after 48 hrs by plaque assay; type: functional, organism-based; conditions: K562, 48 h
dengue virus type 3 [7] = assay: Antiviral activity against Dengue virus 3 H87 infected in african green monkey Vero cells assessed as inhibition of viral yield after 48 hrs; type: functional, organism-based
dengue virus type 4 = assay: Antiviral activity against Dengue virus 4 8124 infected in african green monkey Vero cells assessed as inhibition of viral yield after 48 hrs; type: functional, organism-based; conditions: Dengue virus, 8124, Vero
dengue virus type 1 = assay: Antiviral activity against Dengue virus 1 Hawaii infected in african green monkey Vero cells assessed as inhibition of viral yield after 48 hrs; type: functional, organism-based
dengue virus type 2 [8] = assay: Antiviral activity against Dengue virus 2 NGC infected in african green monkey Vero cells assessed as inhibition of viral yield after 48 hrs; type: functional, organism-based
Junin virus = assay: Antiviral activity against Junin virus IV4454 infected in african green monkey Vero cells assessed as inhibition of viral yield after 48 hrs; type: functional, organism-based; conditions: Mammarenavirus juninense
dengue virus type 2 [9] = assay: Antiviral activity against Dengue virus 2 16681 infected in human HuH7 cells after 72 hrs by indirect immunofluorescent flow cytometry; type: functional, organism-based; conditions: Dengue virus, 16681, Huh-7, 72 h
dengue virus type 2 [10] = assay: Antiviral activity against Dengue virus 2 NGC infected in BHK21 cells after 24 hrs by plaque reduction assay; type: functional; conditions: BHK-21, 24 h
[11] = Cytotoxicity against BHK21 cells after 1 hr by alamar blue assay; type: cell-based, Mesocricetus auratus, BHK-21; conditions: hamster
dengue virus type 2 [12] = assay: Antiviral activity against Dengue virus 2 infected in BHK21 cells assessed as reduction in virus replication after 72 hrs by renilla luciferase reporter gene assay; type: functional, organism-based; conditions: BHK-21, 72 h
Genome polyprotein [13] = biological target: T1, Genome polyprotein; assay: Inhibition of RNA unwinding activity of thioredoxin/His6 tagged Dengue virus 2 TSV01 NS3 helicase (171 to 618 residues) expressed in Escherichia coli Rosetta (DE3) using Cy5-MBHA as substrate by fluorescence assay
Target sequence in this assay (P29990 1476-2093 limits assumed): as above

Genome polyprotein [14] = biological target: T1, Genome polyprotein; assay: Inhibition of Dengue virus 2 NS3 helicase incubated for 2 mins followed by ATP addition
Target sequence in this assay (P29990 1476-2093 limits assumed): as above

[15] = Binding affinity to His-tagged Dengue virus 3 methyltransferase expressed in Escherichia coli Rosetta 2(DE3) by VP-ITC isothermal titration calorimetry; set-up: species or system dengue virus type 3
dengue virus type 2 [16] = assay: Antiviral activity against Dengue virus 2 NGC infected in BHK21 cells after 48 hrs by plaque reduction assay; type: functional, organism-based; conditions: BHK-21, 48 h
Genome polyprotein [17] = biological target: T1, Genome polyprotein; assay: Inhibition of recombinant Dengue virus type 2 NS2B-NS3 protease expressed in Escherichia coli C41 cells using GRR-AMC as substrate after 15 mins by fluorescence assay
Target sequence in this assay (P29990 1346-1475 limits assumed): as the sequence (P29990 1346-1475 limits assumed) above
Target sequence in this assay (P29990 1476-2093 limits assumed): as the sequence (P29990 1476-2093 limits assumed) above

dengue virus type 3 [18] = assay: Potency index, ratio of S-adenosyl-L-methionine Kd to sinefungin Kd for His-tagged Dengue virus 3 methyltransferase expressed in Escherichia coli Rosetta 2(DE3)
dengue virus type 2 [19] = assay: Antiviral activity against Dengue virus 2 infected in BHK21 cells assessed after 3 to 5 days by crystal violet staining based plaque assay; type: functional, organism-based; conditions: BHK-21

Sequence of Nonstructural protein 5 (V5TFZ2 whole entry): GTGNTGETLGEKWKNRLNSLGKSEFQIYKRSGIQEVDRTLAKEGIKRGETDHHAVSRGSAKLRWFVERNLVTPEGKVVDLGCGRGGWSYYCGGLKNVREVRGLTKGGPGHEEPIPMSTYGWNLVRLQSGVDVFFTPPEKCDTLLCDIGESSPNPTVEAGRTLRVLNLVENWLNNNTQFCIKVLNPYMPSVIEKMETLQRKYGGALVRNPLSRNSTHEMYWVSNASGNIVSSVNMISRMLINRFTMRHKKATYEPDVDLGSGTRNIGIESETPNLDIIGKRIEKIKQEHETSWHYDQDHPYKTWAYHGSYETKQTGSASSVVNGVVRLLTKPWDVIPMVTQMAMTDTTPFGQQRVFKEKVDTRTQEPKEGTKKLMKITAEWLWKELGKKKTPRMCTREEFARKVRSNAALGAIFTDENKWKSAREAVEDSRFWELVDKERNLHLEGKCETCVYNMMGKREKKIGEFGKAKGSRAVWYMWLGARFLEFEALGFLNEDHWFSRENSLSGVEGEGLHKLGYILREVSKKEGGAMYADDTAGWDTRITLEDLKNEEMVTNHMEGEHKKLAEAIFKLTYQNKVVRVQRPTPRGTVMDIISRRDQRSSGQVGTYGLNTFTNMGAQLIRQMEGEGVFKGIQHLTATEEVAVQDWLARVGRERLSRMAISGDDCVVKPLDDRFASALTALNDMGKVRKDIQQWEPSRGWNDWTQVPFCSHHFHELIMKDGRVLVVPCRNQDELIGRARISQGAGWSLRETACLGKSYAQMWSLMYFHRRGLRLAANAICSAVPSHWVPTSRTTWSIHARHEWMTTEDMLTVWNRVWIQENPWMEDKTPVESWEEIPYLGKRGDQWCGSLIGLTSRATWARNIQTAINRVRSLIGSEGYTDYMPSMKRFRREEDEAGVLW

`C=C1C(=O)OC(CCCCCCCC)C1C(=O)O` (centres undefined) showed an EC50 (dengue virus type 2 [1]) of 5.7 µM and a CC50 at 48 h [2] greater than 100 µM.

Molecule `CCCC[C@H](NC(=O)[C@H](CCCCN)NC(=O)[C@H](CCCNC(=N)N)NC(=O)c1ccc(/C=C(\C#N)C(=O)NC2CC2)cc1)C(N)=O` has a Ki (Genome polyprotein [3]) of 4.9 µM.

`Nc1ncnc2c1ncn2[C@@H]1O[C@H](CSCC[C@H](N)C(=O)O)[C@@H](O)[C@H]1O` [S-ADENOSYLHOMOCYSTEINE] showed an IC50 [4] of 1.77 µM and an IC50 (Nonstructural protein 5) of 0.49 µM.

`CC(C)n1c(/C=C/C(O)CC(O)CC(=O)O)c(-c2ccc(F)cc2)c2ccccc21` (centres undefined) [FLUVASTATIN] gave an EC50 (dengue virus type 2 [5]) of 1.82 to 8.75 µM.

Work on `CC(=C\C(=O)O)/C=C(\C)C[C@H](C)CCCC[C@H]1OC(=O)[C@@H]1CO` [ANTIBIOTIC 1233A] yielded an EC50 (dengue virus type 2 [6]) of 4.5 µM.

Work on `C=CCn1c2ccc(Cl)cc2c(=O)c2cccc(OC)c21` yielded an EC50 (dengue virus type 3 [7]) of 13.5 to 27.1 µM, an EC50 (dengue virus type 4) of 13.5 to 27.1 µM and an EC50 (dengue virus type 1) of 13.5 to 27.1 µM. The EC50 (dengue virus type 2 [8]) was 13.5 to 27.1 µM.

With `CO[C@@H]1[C@H]2OC(C)(C)O[C@H]2O[C@@H]1C(=O)c1cnc2sc(C(=O)c3ccc(Br)cc3)cn12` the EC50 (Junin virus) was 12 µM and the EC50 (dengue virus type 2 [8]) was 29.9 µM.

Molecule `NC(=O)c1ncn([C@@H]2O[C@H](CO)[C@@H](O)[C@H]2O)n1` [RIBAVIRIN] has an EC50 (dengue virus type 2 [9]) of 40 µM.

Work on `N#C/C(=N\Nc1cccc(Cl)c1)C(=O)c1ccco1` yielded an IC90 (dengue virus type 2 [10]) of 16.9 µM and a CC50 at 1 h [11] greater than 100 µM.

Molecule `Cc1ccc2nc(-c3ccc4nc(-c5ccc(NC(=O)c6ccc7nc(-c8ccc(N)cc8)sc7c6)cc5)sc4c3)sc2c1S(=O)(=O)O` has an EC50 (dengue virus type 2 [12]) of 7.1 µM, an IC50 (Genome polyprotein [13]) of 1.5 µM and an IC50 (Genome polyprotein [14]) of 0.5 µM.

Molecule `C[S+](CC[C@H](N)C(=O)[O-])C[C@H]1O[C@@H](n2cnc3c(N)ncnc32)[C@H](O)[C@@H]1O` (some centres undefined) [ADEMETIONINE] has a Kd [15] of 0.826 µM.

Molecule `C=CCn1c2cc(Cl)ccc2c(=O)c2cccc(OC)c21` has an EC50 (Junin virus) of 2.5 to 5.5 µM, an EC50 (dengue virus type 3 [7]) of 8.3 to 15.9 µM and an EC50 (dengue virus type 4) of 19.9 µM. The EC50 (dengue virus type 1) was 8.3 to 15.9 µM and the EC50 (dengue virus type 2 [8]) was 2.5 to 5.5 µM.

`OC[C@@H]1[C@@H](O)[C@H](O)[C@@H](O)CN1CCCCC1CCCCC1` gave an EC50 (dengue virus type 2 [16]) of 1.5 µM.

With `CC(=O)N[C@@H](CCCNC(=N)N)C(=O)N[C@H](C(=O)N[C@@H](CO)C(=O)N[C@@H](CCCCN)C(=O)N[C@@H](CCCCN)C(=O)N[C@@H](CCCNC(=N)N)C(N)=O)[C@@H](C)O` (Ac-RTSKKR-NH2) the Ki (Genome polyprotein [17]) was 12 µM.

`Nc1ncnc2c1ncn2[C@@H]1O[C@H](C[C@@H](N)CC[C@H](N)C(=O)O)[C@@H](O)[C@H]1O` [SINEFUNGIN] showed an IC50 [4] of 0.03 µM, a Kd [15] of 0.136 µM and a Ratio (dengue virus type 3 [18]) of 6. The IC50 (Nonstructural protein 5) was 0.041 µM.

For `CCN(CC)CCCC(C)Nc1ccnc2cc(Cl)ccc12` (centres undefined) [CHLOROQUINE], the EC90 (dengue virus type 2 [19]) was 5.04 µM.

For `CCN(CC)CCO[C@H]1CC[C@@]2(C)C(=CC[C@@H]3[C@@H]2CC[C@]2(C)C(=O)CC[C@@H]32)C1`, the EC50 (dengue virus type 2 [1]) was 2.9 µM and the CC50 at 48 h [2] was 34.4 µM.
